# ChEMBL document CHEMBL5465560, “Selectivity Literature for EUbOPEN Chemogenomic Library” (2024)
# What was measured:
# [1] = biological target: Mitogen-activated protein kinase 1 (Homo sapiens, UniProt P28482); settings: at 10 µM
# [2] = biological target: Tyrosine-protein kinase Yes (Homo sapiens) (UniProt P07947); experiment: Selectivity interaction (Millipore kinase profiler) EUB0000124b YES1; settings: at 10 µM
# [3] = biological target: T1, Serine/threonine-protein kinase 3 (Homo sapiens) (UniProt Q13188); experiment: Selectivity interaction (KinomeScan (DiscoverX)) EUB0000045b STK3
# T1 sequence (whole entry): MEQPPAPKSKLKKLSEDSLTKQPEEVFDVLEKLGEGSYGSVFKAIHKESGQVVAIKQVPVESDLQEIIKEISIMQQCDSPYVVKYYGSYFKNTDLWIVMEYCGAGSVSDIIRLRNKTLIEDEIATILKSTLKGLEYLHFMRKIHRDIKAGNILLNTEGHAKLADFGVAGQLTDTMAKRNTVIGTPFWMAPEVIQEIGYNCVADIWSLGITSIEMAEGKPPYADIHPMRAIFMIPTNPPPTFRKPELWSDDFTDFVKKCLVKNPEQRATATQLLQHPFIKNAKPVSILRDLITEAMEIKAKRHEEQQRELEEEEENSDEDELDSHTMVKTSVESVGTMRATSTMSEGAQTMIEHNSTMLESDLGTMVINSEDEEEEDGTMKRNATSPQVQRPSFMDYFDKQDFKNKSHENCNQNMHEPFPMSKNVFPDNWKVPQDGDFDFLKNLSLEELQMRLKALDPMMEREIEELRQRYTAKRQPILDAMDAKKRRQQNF
# [4] = biological target: SRSF protein kinase 3 (Homo sapiens) (UniProt Q9UPE1); experiment: Selectivity interaction (KinomeScan (DiscoverX)) EUB0000045b SRPK3
# SRSF protein kinase 3 (Homo sapiens), sequence (Q9UPE1 whole entry): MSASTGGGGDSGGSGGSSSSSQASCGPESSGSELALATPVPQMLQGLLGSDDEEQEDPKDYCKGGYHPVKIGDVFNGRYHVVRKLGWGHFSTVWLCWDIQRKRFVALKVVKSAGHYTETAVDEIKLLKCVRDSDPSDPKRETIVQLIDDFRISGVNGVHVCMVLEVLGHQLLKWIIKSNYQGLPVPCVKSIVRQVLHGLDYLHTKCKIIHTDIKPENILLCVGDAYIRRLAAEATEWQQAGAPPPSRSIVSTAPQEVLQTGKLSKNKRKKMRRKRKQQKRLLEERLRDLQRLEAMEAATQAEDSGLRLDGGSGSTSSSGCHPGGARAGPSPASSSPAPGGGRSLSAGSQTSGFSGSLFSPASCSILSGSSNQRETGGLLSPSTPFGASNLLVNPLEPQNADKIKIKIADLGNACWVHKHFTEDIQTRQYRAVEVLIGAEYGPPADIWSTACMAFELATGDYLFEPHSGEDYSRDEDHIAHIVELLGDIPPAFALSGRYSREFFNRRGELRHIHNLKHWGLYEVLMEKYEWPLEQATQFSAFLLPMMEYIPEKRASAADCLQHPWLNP
# [5] = biological target: Dual specificity testis-specific protein kinase 1 (Homo sapiens) (UniProt Q15569); experiment: Selectivity interaction (KinomeScan (DiscoverX)) EUB0000045b TESK1
# Dual specificity testis-specific protein kinase 1 (Homo sapiens), sequence (Q15569 whole entry, looked up): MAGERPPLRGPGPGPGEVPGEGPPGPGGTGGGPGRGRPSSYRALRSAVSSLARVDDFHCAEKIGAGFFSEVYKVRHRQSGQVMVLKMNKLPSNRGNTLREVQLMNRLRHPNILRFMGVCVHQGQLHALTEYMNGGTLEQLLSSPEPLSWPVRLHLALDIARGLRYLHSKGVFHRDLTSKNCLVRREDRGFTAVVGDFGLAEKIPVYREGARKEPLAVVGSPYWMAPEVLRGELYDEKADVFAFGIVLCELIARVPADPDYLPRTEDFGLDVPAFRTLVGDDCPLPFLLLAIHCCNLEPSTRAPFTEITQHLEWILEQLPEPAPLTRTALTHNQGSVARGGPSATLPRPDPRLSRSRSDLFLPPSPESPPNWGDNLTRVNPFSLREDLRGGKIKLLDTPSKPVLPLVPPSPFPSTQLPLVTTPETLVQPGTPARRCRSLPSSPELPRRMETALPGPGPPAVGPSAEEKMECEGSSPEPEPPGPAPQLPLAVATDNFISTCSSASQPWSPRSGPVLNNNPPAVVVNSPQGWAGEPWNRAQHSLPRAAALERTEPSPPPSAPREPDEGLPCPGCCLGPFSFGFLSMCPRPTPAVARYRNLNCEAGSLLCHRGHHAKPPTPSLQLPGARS
# [6] = biological target: T2, Serine/threonine-protein kinase TAO1 (Homo sapiens) (UniProt Q7L7X3); settings: at 10 µM
# T2 sequence (whole entry): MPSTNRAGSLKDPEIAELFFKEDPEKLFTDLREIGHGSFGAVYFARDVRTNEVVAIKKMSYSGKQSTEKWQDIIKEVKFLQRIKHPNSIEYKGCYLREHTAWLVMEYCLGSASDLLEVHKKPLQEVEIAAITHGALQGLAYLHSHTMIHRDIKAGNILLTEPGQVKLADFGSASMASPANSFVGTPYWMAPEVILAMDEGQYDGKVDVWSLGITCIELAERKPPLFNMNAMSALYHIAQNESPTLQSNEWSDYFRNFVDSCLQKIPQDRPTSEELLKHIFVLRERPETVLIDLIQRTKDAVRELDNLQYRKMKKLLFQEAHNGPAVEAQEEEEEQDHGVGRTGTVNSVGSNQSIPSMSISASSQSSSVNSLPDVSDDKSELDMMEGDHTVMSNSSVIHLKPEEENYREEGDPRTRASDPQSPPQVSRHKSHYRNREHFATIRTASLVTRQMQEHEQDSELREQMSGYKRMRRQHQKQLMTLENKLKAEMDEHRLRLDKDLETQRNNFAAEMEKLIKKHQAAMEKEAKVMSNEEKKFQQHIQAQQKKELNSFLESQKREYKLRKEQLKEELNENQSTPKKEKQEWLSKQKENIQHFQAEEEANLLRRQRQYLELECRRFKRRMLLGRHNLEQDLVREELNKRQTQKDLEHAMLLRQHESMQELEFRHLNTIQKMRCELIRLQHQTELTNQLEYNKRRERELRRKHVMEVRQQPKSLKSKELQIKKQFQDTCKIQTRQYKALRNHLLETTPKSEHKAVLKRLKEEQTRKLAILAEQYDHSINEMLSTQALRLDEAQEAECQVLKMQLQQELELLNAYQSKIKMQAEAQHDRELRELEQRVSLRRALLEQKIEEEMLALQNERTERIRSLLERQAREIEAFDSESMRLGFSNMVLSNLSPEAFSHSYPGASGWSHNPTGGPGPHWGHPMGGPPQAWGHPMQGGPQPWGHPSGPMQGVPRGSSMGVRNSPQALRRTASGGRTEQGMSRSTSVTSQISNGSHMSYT
# [7] = biological target: Histone-lysine N-methyltransferase ASH1L (Homo sapiens) (UniProt Q9NR48); experiment: Selectivity interaction (Bromodomain panel (DSF asssay)) EUB0000270b ASH1L
# [8] = biological target: TGF-beta receptor type-2 (Homo sapiens) (UniProt P37173); experiment: Selectivity interaction (ProQinase) EUB0000171b TGFBR2
# TGF-beta receptor type-2 (Homo sapiens), sequence (P37173 whole entry): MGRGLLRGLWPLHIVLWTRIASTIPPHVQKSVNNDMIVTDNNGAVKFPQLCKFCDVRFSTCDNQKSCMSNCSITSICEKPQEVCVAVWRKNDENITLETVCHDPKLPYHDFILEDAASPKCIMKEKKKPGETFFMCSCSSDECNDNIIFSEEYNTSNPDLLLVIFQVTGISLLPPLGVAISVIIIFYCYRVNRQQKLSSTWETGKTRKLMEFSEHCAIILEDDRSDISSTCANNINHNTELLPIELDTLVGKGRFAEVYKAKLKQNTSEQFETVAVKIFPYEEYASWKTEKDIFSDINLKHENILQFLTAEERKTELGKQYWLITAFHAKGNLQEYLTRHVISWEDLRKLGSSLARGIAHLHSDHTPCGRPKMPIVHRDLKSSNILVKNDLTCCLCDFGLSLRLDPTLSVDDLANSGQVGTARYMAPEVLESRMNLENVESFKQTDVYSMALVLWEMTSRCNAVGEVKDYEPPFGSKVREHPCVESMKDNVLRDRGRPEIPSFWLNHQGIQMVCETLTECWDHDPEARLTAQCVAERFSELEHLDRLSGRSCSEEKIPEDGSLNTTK
# [9] = biological target: T3, Homeodomain-interacting protein kinase 4 (Homo sapiens) (UniProt Q8NE63); experiment: Selectivity interaction (KinomeScan (DiscoverX)) EUB0000092b HIPK4; settings: at 10 µM
# T3 sequence (whole entry): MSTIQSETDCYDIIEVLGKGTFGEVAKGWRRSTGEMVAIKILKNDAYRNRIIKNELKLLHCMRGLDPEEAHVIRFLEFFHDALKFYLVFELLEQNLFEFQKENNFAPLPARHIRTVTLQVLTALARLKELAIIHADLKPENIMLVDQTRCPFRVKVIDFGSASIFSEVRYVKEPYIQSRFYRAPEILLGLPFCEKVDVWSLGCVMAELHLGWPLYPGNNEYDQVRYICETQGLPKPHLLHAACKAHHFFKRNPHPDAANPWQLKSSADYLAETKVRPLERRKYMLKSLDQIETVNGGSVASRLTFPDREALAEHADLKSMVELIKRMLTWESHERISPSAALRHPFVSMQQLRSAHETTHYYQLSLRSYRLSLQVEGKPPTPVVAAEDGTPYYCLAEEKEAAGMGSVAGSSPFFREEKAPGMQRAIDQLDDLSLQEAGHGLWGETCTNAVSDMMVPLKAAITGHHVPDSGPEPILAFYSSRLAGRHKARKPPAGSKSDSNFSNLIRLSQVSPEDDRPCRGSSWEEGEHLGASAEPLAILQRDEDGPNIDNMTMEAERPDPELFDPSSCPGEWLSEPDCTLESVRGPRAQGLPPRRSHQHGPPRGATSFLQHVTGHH
# [10] = biological target: High affinity nerve growth factor receptor (Homo sapiens, UniProt P04629); experiment: Selectivity interaction (KinomeScan (DiscoverX)) EUB0000092b NTRK1; settings: at 10 µM
# High affinity nerve growth factor receptor, sequence (P04629 33-796 limits assumed): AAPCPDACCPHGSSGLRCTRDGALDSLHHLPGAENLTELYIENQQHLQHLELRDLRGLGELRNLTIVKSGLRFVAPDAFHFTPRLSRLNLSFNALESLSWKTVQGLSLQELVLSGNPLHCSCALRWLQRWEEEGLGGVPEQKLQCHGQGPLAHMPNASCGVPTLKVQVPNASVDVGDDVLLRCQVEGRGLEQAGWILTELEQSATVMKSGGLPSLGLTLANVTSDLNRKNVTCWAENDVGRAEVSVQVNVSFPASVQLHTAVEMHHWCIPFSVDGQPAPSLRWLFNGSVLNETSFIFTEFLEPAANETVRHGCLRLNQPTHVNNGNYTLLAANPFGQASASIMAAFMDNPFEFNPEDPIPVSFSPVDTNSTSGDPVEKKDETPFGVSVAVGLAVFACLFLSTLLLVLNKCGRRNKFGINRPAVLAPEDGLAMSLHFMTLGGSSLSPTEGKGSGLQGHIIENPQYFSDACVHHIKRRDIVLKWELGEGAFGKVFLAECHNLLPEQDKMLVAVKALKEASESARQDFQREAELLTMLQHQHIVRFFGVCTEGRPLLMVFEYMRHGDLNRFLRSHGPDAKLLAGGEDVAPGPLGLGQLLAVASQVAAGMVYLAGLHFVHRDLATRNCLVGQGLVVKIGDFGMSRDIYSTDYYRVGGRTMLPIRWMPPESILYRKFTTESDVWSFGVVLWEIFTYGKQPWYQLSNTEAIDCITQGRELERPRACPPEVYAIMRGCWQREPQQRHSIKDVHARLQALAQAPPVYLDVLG
# [11] = biological target: Non-receptor tyrosine-protein kinase TYK2 (Homo sapiens, UniProt P29597); experiment: Selectivity interaction (Kinase panel (Carna Biosciences)) EUB0001542aTs TYK2; settings: at 1 µM
# Non-receptor tyrosine-protein kinase TYK2, sequence (P29597 whole entry): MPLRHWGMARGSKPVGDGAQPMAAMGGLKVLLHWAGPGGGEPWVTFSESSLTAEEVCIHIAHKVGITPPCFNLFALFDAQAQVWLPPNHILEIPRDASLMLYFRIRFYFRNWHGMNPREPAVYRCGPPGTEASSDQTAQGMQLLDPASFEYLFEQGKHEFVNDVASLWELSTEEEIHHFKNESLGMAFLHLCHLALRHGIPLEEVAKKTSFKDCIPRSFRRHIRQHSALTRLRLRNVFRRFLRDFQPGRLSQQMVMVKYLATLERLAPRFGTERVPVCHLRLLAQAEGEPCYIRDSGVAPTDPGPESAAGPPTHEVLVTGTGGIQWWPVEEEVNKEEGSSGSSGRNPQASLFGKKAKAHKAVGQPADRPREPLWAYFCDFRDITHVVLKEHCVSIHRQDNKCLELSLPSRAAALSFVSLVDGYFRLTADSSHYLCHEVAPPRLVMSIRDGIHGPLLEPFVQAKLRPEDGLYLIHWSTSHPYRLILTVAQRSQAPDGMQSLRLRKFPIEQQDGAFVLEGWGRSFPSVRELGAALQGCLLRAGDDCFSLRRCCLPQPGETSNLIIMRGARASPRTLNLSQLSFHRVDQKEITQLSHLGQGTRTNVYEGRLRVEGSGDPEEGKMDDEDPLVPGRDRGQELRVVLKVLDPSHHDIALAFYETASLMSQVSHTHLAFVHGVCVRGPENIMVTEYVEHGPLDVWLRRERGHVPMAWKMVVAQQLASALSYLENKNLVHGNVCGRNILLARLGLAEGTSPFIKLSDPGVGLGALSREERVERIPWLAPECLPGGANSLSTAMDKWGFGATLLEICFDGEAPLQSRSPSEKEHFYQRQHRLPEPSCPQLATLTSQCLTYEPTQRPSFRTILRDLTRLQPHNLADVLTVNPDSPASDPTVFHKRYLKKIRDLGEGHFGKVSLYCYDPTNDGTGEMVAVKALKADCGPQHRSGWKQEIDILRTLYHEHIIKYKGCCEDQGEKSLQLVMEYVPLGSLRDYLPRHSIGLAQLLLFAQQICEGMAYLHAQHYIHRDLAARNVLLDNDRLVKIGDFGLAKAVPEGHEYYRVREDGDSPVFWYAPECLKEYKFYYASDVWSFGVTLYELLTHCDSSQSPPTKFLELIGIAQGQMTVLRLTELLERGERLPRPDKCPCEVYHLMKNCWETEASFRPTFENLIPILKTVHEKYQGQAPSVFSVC
# Mitogen-activated protein kinase 1, sequence (P28482 whole entry): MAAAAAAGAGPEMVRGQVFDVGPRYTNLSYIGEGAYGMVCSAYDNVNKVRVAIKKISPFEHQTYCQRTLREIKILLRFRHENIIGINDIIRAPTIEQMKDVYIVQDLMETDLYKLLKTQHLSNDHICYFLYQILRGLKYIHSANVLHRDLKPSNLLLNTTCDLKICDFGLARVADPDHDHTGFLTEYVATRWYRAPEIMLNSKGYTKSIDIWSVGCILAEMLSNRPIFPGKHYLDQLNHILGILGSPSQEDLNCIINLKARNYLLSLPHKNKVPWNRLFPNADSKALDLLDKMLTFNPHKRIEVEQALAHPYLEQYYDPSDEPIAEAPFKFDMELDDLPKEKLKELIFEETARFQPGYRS
# Tyrosine-protein kinase Yes (Homo sapiens), sequence (P07947 2-543 limits assumed): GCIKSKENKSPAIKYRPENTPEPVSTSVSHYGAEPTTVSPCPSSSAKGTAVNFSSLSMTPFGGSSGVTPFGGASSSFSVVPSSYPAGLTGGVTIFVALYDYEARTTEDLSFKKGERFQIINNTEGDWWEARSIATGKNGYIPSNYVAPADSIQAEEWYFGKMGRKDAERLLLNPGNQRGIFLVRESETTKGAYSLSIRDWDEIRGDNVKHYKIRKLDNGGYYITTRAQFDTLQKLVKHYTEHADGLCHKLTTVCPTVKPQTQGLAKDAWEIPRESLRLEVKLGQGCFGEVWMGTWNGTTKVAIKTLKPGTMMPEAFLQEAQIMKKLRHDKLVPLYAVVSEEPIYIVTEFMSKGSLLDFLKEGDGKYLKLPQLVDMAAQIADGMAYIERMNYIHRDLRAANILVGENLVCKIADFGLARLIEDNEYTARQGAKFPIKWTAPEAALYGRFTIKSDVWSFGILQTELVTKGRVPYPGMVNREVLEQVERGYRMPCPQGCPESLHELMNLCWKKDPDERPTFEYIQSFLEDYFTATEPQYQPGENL
compound,measurement,setting,value
CCN(CC)CCCCNc1ncc2cc(-c3cc(OC)cc(OC)c3)c(NC(=O)NC(C)(C)C)nc2n1,% of control,[1],100%
CC(=O)Nc1cccc(-n2c(=O)n(C3CC3)c(=O)c3c(Nc4ccc(I)cc4F)n(C)c(=O)c(C)c32)c1,% of control,[2],104%
C=CC(=O)Nc1cc(-n2c(=O)ccc3cnc4ccc(-c5ccc(NS(C)(=O)=O)cc5)cc4c32)ccc1C,% of control,[3]; at 1 µM,62%
same,% of control,[3]; at 10 µM,95%
same,% of control,[4]; at 1 µM,100%
same,% of control,[4]; at 10 µM,67%
same,% of control,[5]; at 1 µM,94%
same,% of control,[5]; at 10 µM,98%
Cc1cc([C@@H](C)Nc2ccccc2C(=O)O)c2nc(N3CCOCC3)cc(=O)n2c1 [AZD-6482],% of control,[6],59%
Cc1cc(CN)cc(C)c1-c1ncn(C)c1-c1cncn1C,dTM,[7],-1.06 K
C=CC(=O)Nc1cccc(C(=O)Nc2ccc(Nc3cc(-c4[nH]c(SC)nc4C)ccn3)cc2)c1,% of control,[8]; at 1 µM,53%
same,% of control,[8]; at 5 µM,4%
CCC(=O)N1CCN(c2ccc(-n3c(=O)ccc4cnc5ccc(-c6cnc7ccccc7c6)cc5c43)cc2C(F)(F)F)CC1,% of control,[9],4.6%
same,% of control,[10],64%
Cn1cc(Nc2nccc(N3CC4CCC(C3)N4C(=O)[C@@H]3CC3(F)F)n2)cn1,% of inhibition,[11],98%
